Source: US5955500A (G. D. Searle & Co., priority 1997, dated 1999)
Where two headings read alike, the source gives them in different places.

How the values were obtained:
[1] = tested on: isolated working rat heart
[2] = tested on: isolated working rat heart; settings: R 950 ng/ml
[3] = tested on: isolated working rat heart; remark: listed apart in the source
[4] = tested on: canine heart; settings: for AH time / Heart rate / Mean arterial pressure: mean ± SE
Description: Fourteen adult mongrel dogs of either sex weighing between 19 and 25 kg were prepared for chronic electrophysiologic investigation by implanting epicardial electrodes and an indwelling aortic catheter. The dogs were fasted overnight and initially anesthetized with halothane on the day of surgery. After tracheal intubation, anesthesia was maintained with isoflurane and oxygen via positive pressure ventilation to keep end tidal carbon dioxide within the normal range. Muscular relaxation was induced by pancuronium. A right thoracotomy was performed in the fifth intercostal space. Three bipolar electrode pairs were sutured to the epicardial surface of the right atrial appendage and on the right and left ventricular apex (FIG. 5). A bipolar electrode was sutured to the right atrium close to the anatomical region of the sinoatrial node. A bipolar plunge electrode was placed into base of the interventricular septum to record a His bundle electrogram. An indwelling arterial catheter was placed into the aorta through the left femoral artery after surgical exposure of the artery at the inner side of the hind limb. All electrode leads were subcutaneously tunneled and exited through the skin between the scapulae. Incisions were closed in anatomic fashion and standard postoperative methods of analgesia were provided with 0.015 mg/kg of buprenorphine (Buprenex®, Reckitt & Colman, Hull, UK) and two times of 25 mg/kg cefazolin (Cefazolin Sodium®, SoloPak Laboratories, Elk Groove Village, Ill.) and dogs were allowed to recover from surgery for a period of seven days prior to testing.
Electrical signals from the bipolar electrodes, after suitable amplification in a custom built preamplifier (gain 1000), were filtered in a separate custom designed and built common mode rejection amplifier with a bandpass filter of 10-1000 Hz and individually adjusted for signal strength (maximal gain 400). […] Right atrial appendage (RA), right ventricular apex (RVA) and His bundle electrograms (HB) were recorded, simultaneously. […] All measurements of conduction times were made during spontaneous sinus rhythm.
The His bundle electrode (HBE) was advanced into the base of the interatrial septum from the aortic root. The electrode was advanced from a point located just behind and to the right of the origin of the right coronary artery. The HBE was slowly advanced parallel to the aorta, inferiorly and slightly anteriorly until a well discernible His potential was recorded. AV conduction (AH) interval was measured as the time difference (ms) between the onset of the initial rapid deflection in the RA electrogram to the beginning of the His potential in the HB electrogram. His-ventricular (HV) conduction time interval (ms) was measured from the beginning of the His potential (HBE) to the initial deflection of the QRS complex wave (earliest left ventricular activation) in a simultaneously recorded surface ECG lead II.
As an indicator of automaticity, sinus node recovery time (SNRT) was determined by pacing the right atrial appendage (30 s at 180 and 200 beats/min at 2 msec pulse duration; 2×threshold). SNRT was measured from the last pacing spike to the first spontaneous atrial activity on the His bundle electrogram after cessation of pacing (ms).
A timed extrastimulus (S2) was delivered 300 ms after the preceding pacing spike (S1).
Verapamil was dissolved in 5% dextrose and water ([…]).
During the postoperative period, each dog was trained to stand quietly in a sling during electrophysiological monitoring. Prior to measurement, electrical signals in each dog were monitored to verify the absence of spontaneous arrhythmias other-than normal respiratory sinus arrhythmias.
From the resting dog, 5 channel records were obtained at a sampling rate of 1 kHz per channel for 7 min to determine the following conduction intervals: AH, HV, QRS, QT and HR. A corrected QT interval [QTc=QT interval in ms/ (R-R interval in s)^1/2 ] was also calculated.

Compound: COc1ccc(CCN(C)CCC[C@](C#N)(c2ccc(OC)c(OC)c2)C(C)C)cc1OC [R-verapamil, reference compound]
- Peak systolic pressure (PSP), significance vs predrug ([1]; R alone, R1-R4 (50-950 ng/ml cumulative)): n.s.
- Cardiac output change, in words ([1]; R exceeding 200 ng/ml (R2)): Cardiac output appears to increase
- Effect on peak systolic pressure (PSP), in words [2]: no apparent effect on PSP
- Nature of cardiac effect (inotropic / chronotropic) ([2]; S 100 ng/ml): primarily chronotropic
- Peak systolic pressure (PSP), significance vs predrug ([2]; S 100 ng/ml, R/S ratio 9.5): n.s.
- Cardiac output (CO), significance vs baseline ([3]; R1 (50 ng/ml)): n.s.
- Heart rate (HR), significance vs baseline ([3]; R1 (50 ng/ml)): n.s.
- Peak systolic pressure (PSP), significance vs baseline ([3]; R1 (50 ng/ml)): n.s.
- Cardiac output (CO), significance vs baseline ([3]; R2 (200 ng/ml)): n.s.
- Heart rate (HR), significance vs baseline ([3]; R2 (200 ng/ml)): n.s.
- Peak systolic pressure (PSP), significance vs baseline ([3]; R2 (200 ng/ml)): n.s.
- Cardiac output (CO), significance vs baseline ([3]; R3 (450 ng/ml)): n.s.
- Heart rate (HR), significance vs baseline ([3]; R3 (450 ng/ml)): n.s.
- Peak systolic pressure (PSP), significance vs baseline ([3]; R3 (450 ng/ml)): n.s.
- Peak systolic pressure (PSP), significance vs baseline ([3]; R4 (950 ng/ml)): n.s.
- Effect on peak systolic pressure (PSP), in words ([3]; increasing levels of R): remains unaffected by increasing levels of R
- AH time ([4]; 0.1 mg/kg i.v., 0 min): 88 ± 5 ms
- Heart rate ([4]; 0.1 mg/kg i.v., 0 min): 103 ± 9 beats per min
- Mean arterial pressure ([4]; 0.1 mg/kg i.v., 0 min): 94 ± 3 mmHg
- AH time ([4]; 0.1 mg/kg i.v., 1 min): 94 ± 4 ms
- Heart rate ([4]; 0.1 mg/kg i.v., 1 min): 95 ± 7 beats per min
- Mean arterial pressure ([4]; 0.1 mg/kg i.v., 1 min): 95 ± 3 mmHg
- AH time ([4]; 0.1 mg/kg i.v., 2 min): 93 ± 5 ms
- Heart rate ([4]; 0.1 mg/kg i.v., 2 min): 98 ± 8 beats per min
- Mean arterial pressure ([4]; 0.1 mg/kg i.v., 2 min): 95 ± 2 mmHg
- AH time ([4]; 0.1 mg/kg i.v., 3 min): 93 ± 5 ms
- Heart rate ([4]; 0.1 mg/kg i.v., 3 min): 93 ± 7 beats per min
- Mean arterial pressure ([4]; 0.1 mg/kg i.v., 3 min): 95 ± 3 mmHg
- AH time ([4]; 0.1 mg/kg i.v., 4 min): 95 ± 5 ms
- Heart rate ([4]; 0.1 mg/kg i.v., 4 min): 91 ± 8 beats per min
- Mean arterial pressure ([4]; 0.1 mg/kg i.v., 4 min): 95 ± 3 mmHg
- AH time ([4]; 0.1 mg/kg i.v., 5 min): 95 ± 5 ms
- Heart rate ([4]; 0.1 mg/kg i.v., 5 min): 92 ± 8 beats per min
- Mean arterial pressure ([4]; 0.1 mg/kg i.v., 5 min): 95 ± 3 mmHg
- AH time ([4]; 0.2 mg/kg i.v., 0 min): 93 ± 4 ms
- Heart rate ([4]; 0.2 mg/kg i.v., 0 min): 106 ± 7 beats per min
- Mean arterial pressure ([4]; 0.2 mg/kg i.v., 0 min): 90 ± 3 mmHg
- AH time ([4]; 0.2 mg/kg i.v., 1 min): 99 ± 5 ms
- Heart rate ([4]; 0.2 mg/kg i.v., 1 min): 104 ± 8 beats per min
- Mean arterial pressure ([4]; 0.2 mg/kg i.v., 1 min): 97 ± 3 mmHg
- AH time ([4]; 0.2 mg/kg i.v., 2 min): 97 ± 5 ms
- Heart rate ([4]; 0.2 mg/kg i.v., 2 min): 99 ± 9 beats per min
- Mean arterial pressure ([4]; 0.2 mg/kg i.v., 2 min): 97 ± 3 mmHg
- AH time ([4]; 0.2 mg/kg i.v., 3 min): 98 ± 4 ms
- Heart rate ([4]; 0.2 mg/kg i.v., 3 min): 102 ± 9 beats per min
- Mean arterial pressure ([4]; 0.2 mg/kg i.v., 3 min): 94 ± 2 mmHg
- AH time ([4]; 0.2 mg/kg i.v., 4 min): 98 ± 4 ms
- Heart rate ([4]; 0.2 mg/kg i.v., 4 min): 96 ± 8 beats per min
- Mean arterial pressure ([4]; 0.2 mg/kg i.v., 4 min): 96 ± 2 mmHg
- AH time ([4]; 0.2 mg/kg i.v., 5 min): 99 ± 5 ms
- Heart rate ([4]; 0.2 mg/kg i.v., 5 min): 95 ± 9 beats per min
- Mean arterial pressure ([4]; 0.2 mg/kg i.v., 5 min): 92 ± 2 mmHg
- AH time ([4]; 0.4 mg/kg i.v., 0 min): 97 ± 4 ms
- Heart rate ([4]; 0.4 mg/kg i.v., 0 min): 123 ± 5 beats per min
- Mean arterial pressure ([4]; 0.4 mg/kg i.v., 0 min): 86 ± 2 mmHg
- AH time ([4]; 0.4 mg/kg i.v., 1 min): 106 ± 5 ms
- Heart rate ([4]; 0.4 mg/kg i.v., 1 min): 108 ± 6 beats per min
- Mean arterial pressure ([4]; 0.4 mg/kg i.v., 1 min): 94 ± 2 mmHg
- AH time ([4]; 0.4 mg/kg i.v., 2 min): 106 ± 4 ms
- Heart rate ([4]; 0.4 mg/kg i.v., 2 min): 109 ± 5 beats per min
- Mean arterial pressure ([4]; 0.4 mg/kg i.v., 2 min): 98 ± 3 mmHg
- AH time ([4]; 0.4 mg/kg i.v., 3 min): 104 ± 4 ms
- Heart rate ([4]; 0.4 mg/kg i.v., 3 min): 106 ± 7 beats per min
- Mean arterial pressure ([4]; 0.4 mg/kg i.v., 3 min): 97 ± 3 mmHg
- AH time ([4]; 0.4 mg/kg i.v., 4 min): 104 ± 5 ms
- Heart rate ([4]; 0.4 mg/kg i.v., 4 min): 108 ± 7 beats per min
- Mean arterial pressure ([4]; 0.4 mg/kg i.v., 4 min): 99 ± 3 mmHg
- AH time ([4]; 0.4 mg/kg i.v., 5 min): 105 ± 5 ms
- Heart rate ([4]; 0.4 mg/kg i.v., 5 min): 111 ± 6 beats per min
- Mean arterial pressure ([4]; 0.4 mg/kg i.v., 5 min): 98 ± 3 mmHg
- Interaction between MAP and HR (multiple linear regression), in words ([4]; increase in HR against drop in MAP): least increase in heart rate measured against a drop in blood pressure
